Laboratory results taken from PMC5156323 (Journal of natural products, 2015).
pIC50: −log10 of the molar value.

Assays:
Type in all cases: cell-based
[1] = tested on: proinflammatory cytokine production in induced THP-1 cells; assay: induced THP-1; details: at 10 μM
[2] = tested on: leukemia cell line SR; assay: NCI-DTP 60, SR; details: read-out: IC50 (cytotoxic)
[3] = tested on: melanoma cell line LOX IMVI; assay: NCI-DTP 60, LOX IMVI; details: Homo sapiens, read-out: IC50 (cytotoxic)
[4] = tested on: interleukin 6 (IL-6) production in induced THP-1 cells; assay: induced THP-1
[5] = tested on: IL-33 production in induced THP-1 cells; assay: induced THP-1; details: at 10 μM; THP-1 cells induced with LPS and TiO2
[6] = tested on: IL-1β production in induced THP-1 cells; assay: induced THP-1; details: abstract, no concentration given
[7] = tested on: tumor necrosis factor-alpha (TNF-α) production in induced THP-1 cells; assay: induced THP-1; details: abstract, no concentration given

SMILES | effect on proinflammatory cytokine production [1] | pIC50 [2] | pIC50 [3] | IL-6 production in the induced inflammasome assay ([4]; abstract, no concentration given) | inhibition of production of interleukin 6 (IL-6) ([4]; at 10 μM, THP-1 cells induced with LPS and TiO2) | inhibition of production of IL-33 [5] | IL-1β production in the induced inflammasome assay [6] | TNFα production in the induced inflammasome assay [7]
CCCCCCCCCC(=O)[C@@H]1C(=O)O[C@@]2(C)C(=O)C=C3C=C(C[C@H](C)O)OC=C3[C@@H]12 [Compound 1, berkchaetoazaphilone A] | no effect |  |  |  |  |  |  | 
CCCCCCCCCC(=O)[C@@]12O[C@@]13C1=COC(C[C@H](C)O)=CC1=CC(=O)[C@]3(C)OC2=O [Compound 2, berkchaetoazaphilone B] |  | 5.00 | 5.00 | inhibited | completely inhibited | completely inhibited | inhibited | inhibited
